From BigSolDB 2.1

Details: in water

O=C(O)c1cc(O)c(O)c(O)c1
Details | solubility (mole fraction)
298 K | 0.00158
303 K | 0.00176
308 K | 0.00203
313 K | 0.00248
318 K | 0.00311
323 K | 0.00433
328 K | 0.00557
333 K | 0.00712
338 K | 0.00898
343 K | 0.0126
